Common to all, as to format: cell-based
One test addresses T1, human TLR7 (Homo sapiens, UniProt Q9NYK1).
T1 construct: host or cells: HEK-Blue cells
T1 sequence (Q9NYK1 27-1049): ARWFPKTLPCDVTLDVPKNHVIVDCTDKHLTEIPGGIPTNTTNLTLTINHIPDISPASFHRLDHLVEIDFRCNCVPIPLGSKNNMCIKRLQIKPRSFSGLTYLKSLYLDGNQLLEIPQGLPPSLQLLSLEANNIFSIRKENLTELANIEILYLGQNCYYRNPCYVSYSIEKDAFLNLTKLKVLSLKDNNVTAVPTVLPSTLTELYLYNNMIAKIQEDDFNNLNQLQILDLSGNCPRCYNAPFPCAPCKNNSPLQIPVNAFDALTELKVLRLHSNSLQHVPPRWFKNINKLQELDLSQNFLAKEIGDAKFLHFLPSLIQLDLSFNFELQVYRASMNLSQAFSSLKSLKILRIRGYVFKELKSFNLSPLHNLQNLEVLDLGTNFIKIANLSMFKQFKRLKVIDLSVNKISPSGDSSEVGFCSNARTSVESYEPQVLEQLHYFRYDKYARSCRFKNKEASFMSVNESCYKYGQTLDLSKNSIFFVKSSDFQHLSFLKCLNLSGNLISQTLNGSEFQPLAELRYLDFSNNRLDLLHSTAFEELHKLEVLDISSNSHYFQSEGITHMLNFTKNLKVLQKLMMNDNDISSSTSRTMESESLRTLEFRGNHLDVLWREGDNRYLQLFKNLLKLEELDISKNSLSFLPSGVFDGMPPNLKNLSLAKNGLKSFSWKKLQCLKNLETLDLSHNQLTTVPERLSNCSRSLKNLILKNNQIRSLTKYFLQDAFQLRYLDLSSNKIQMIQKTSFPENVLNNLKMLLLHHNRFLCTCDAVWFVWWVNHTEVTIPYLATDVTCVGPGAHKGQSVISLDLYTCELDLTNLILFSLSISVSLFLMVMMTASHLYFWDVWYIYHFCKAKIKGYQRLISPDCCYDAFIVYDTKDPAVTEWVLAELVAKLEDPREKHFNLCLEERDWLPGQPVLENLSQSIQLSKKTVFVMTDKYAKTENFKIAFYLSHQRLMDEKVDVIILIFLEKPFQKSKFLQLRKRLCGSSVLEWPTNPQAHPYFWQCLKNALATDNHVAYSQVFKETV
In words: TLR7 inhibition reporter assay (HEK-Blue SEAP reporter). The note with it: HEK-Blue cells overexpressing human TLR7; gardiquimod 7.5 μM; 22 hour incubation. The gist of the method: (§1)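 HEK-Blue cells overexpressing human TLR7, TLR8 or TLR9 carry a SEAP reporter driven by NF-κB/AP-1 sites. Compounds (0.05 nM–50 μM) were preincubated 30 min at room temperature, then cells were stimulated with gardiquimod 7.5 μM (TLR7), R848 15.9 μM (TLR8) or ODN2006 5 nM (TLR9) for 22 h at 37 °C.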
(In general: In a reporter assay the amount or activity of a reporter protein is the signal.)

For another test, the target named is T2, human TLR9 (Homo sapiens, UniProt Q9NR96).
T2 construct: host or cells: HEK-Blue cells
T2 sequence (Q9NR96 26-1032): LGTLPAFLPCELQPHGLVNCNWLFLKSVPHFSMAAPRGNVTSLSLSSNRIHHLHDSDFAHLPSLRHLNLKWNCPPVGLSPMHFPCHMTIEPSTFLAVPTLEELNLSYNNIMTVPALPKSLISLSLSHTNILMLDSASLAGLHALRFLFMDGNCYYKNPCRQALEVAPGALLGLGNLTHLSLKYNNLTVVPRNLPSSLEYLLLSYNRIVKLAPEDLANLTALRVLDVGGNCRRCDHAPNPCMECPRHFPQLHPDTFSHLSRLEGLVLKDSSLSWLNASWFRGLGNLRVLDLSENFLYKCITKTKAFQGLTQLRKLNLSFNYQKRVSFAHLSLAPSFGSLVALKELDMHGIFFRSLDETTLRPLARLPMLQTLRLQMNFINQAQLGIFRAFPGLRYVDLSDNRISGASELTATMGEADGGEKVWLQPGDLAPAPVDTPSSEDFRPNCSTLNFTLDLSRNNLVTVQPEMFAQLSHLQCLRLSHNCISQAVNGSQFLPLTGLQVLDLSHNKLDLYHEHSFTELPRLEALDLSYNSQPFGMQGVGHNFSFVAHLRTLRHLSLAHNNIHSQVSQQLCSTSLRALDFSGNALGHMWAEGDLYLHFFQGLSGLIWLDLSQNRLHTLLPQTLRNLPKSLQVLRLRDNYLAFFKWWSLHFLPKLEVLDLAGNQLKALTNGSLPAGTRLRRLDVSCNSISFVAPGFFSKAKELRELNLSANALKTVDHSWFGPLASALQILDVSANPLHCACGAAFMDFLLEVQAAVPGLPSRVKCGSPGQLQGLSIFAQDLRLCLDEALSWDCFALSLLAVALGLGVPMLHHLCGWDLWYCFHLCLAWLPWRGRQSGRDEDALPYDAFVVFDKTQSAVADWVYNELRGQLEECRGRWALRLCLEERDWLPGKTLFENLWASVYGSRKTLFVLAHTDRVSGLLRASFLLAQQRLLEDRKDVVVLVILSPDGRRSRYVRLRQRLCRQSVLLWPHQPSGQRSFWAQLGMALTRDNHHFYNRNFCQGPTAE
Description: TLR9 inhibition reporter assay (HEK-Blue SEAP reporter). Conditions: HEK-Blue cells overexpressing human TLR9; ODN2006 5 nM; 22 hour incubation. Summed up:
as §1

The target of the next test is T3, human TLR8 (Homo sapiens, UniProt Q9NR97).
T3 construct: host or cells: HEK-Blue cells
T3 sequence (Q9NR97 27-1041): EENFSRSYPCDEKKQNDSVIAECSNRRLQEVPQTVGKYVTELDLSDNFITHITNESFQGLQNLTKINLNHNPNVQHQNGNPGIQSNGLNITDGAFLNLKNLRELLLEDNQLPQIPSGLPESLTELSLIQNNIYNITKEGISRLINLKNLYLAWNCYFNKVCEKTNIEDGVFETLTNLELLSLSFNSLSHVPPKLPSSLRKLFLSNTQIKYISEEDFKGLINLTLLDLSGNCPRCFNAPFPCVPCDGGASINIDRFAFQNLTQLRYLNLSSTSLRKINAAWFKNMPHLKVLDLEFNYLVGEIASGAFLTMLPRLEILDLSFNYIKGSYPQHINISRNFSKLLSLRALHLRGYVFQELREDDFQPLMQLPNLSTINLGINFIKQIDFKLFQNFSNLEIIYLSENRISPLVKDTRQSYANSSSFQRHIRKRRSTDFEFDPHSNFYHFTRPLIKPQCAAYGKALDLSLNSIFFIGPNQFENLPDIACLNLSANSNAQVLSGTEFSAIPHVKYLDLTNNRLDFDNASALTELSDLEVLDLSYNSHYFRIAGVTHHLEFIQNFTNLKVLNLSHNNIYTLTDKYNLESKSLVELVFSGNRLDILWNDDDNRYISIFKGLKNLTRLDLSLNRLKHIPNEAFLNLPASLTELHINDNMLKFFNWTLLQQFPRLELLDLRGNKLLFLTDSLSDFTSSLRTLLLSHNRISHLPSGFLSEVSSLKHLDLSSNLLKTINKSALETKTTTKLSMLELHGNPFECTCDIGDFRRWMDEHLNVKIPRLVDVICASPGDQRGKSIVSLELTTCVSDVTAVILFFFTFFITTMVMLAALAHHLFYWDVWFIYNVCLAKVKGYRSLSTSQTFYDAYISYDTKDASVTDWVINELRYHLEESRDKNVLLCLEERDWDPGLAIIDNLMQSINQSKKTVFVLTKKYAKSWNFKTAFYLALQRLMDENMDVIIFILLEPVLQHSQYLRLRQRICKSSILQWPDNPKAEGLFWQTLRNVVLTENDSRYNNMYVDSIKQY
In words: TLR8 inhibition reporter assay (HEK-Blue SEAP reporter). The note with it: HEK-Blue cells overexpressing human TLR8; R848 15.9 μM; 22 hour incubation. The gist of the method:
as §1

By IC50 is commonly meant the concentration needed to halve the response being measured. High values mean weaker potency in that assay, low ones greater potency in that assay. Consider `COc1ccc(-c2[nH]c3ccc(N4CC5(CCCNC5)C4)cc3c2C(C)C)cc1OC` [Example 136, 2-(2-(3,4-dimethoxyphenyl)-3-isopropyl-H-indol-5-yl)-2,6-diazaspiro[3.5]nonane], for which the IC50 against human TLR7 was found to be 542 nM; against human TLR9, 2650 nM; on human TLR8 it was 35 nM.
For `CNCCN1CCN(c2ccc3[nH]c(-c4ccnc5[nH]ccc45)c(C(C)C)c3c2)CC1` [Example 138, 2-(4-(3-isopropyl-2-(1H-pyrrolo[2,3-b]pyridin-4-yl)-1H-indol-5-yl)piperazin-1-yl)-N-methylethan-1-amine] the same measures were 2 nM, 939 nM and 0.62 nM.
Take `CCc1c(-c2ccnc(C)c2)[nH]c2ccc(N3CCN(C4CCN(C)CC4)CC3)cc12` [Example 139, 3-ethyl-5-(4-(1-methylpiperidin-4-yl)piperazin-1-yl)-2-(2-methylpyridin-4-yl)-1H-indole]: the IC50 was determined as 2760 nM against human TLR7, 157 nM against human TLR9 and 1070 nM against human TLR8.
For `Cc1c(-c2ccnc3[nH]ccc23)[nH]c2ccc(N3CCN(C4CCN(C)CC4)CC3)cc12` [Example 141, 4-(3-methyl-5-(4-(1-methylpiperidin-4-yl)piperazin-1-yl)-1H-indol-2-yl)-1H-pyrrolo[2,3-b]pyridine], in that order: 2170 nM, 124 nM and 1720 nM.
Regarding `CCc1c(-c2ccnc(C)c2)[nH]c2ccc(N3CCN(C4CCN(CC)CC4)CC3)cc12` [Example 142, 3-ethyl-5-(4-(1-ethylpiperidin-4-yl)piperazin-1-yl)-2-(2-methylpyridin-4-yl)-1H-indole], the results for the IC50 on human TLR7, against human TLR9 and at human TLR8 were 3670 nM, 225 nM and 7880 nM, respectively.
For `CCc1c(-c2ccnc(OC)c2)[nH]c2ccc(N3CCN(C4CCN(C)CC4)CC3)cc12` [Example 143, 3-ethyl-2-(2-methoxypyridin-4-yl)-5-(4-(1-methylpiperidin-4-yl)piperazin-1-yl)-1H-indole] the same measures were 75 nM, 839 nM and 10 nM.
For `CCc1c(-c2ccc(OC)c(OC)c2)[nH]c2cc(C)c(N3CCN(CCNC)CC3)cc12` [Example 144, 2-(4-(2-(3,4-dimethoxyphenyl)-3-ethyl-6-methyl-1H-indol-5-yl)piperazin-1-yl)-N-methylethan-1-amine], the IC50 against human TLR7 was 45 nM; on human TLR9, 952 nM; on human TLR8, 45 nM.
As to `C#CCCCN1CCN(c2ccc3[nH]c(-c4ccc(OC)c(OC)c4)c(C(C)C)c3c2)CC1` [Example 146, 2-(3,4-dimethoxyphenyl)-3-isopropyl-5-(4-(pent-4-yn-1-yl)piperazin-1-yl)-1H-indole], the IC50 at human TLR7 came out at 206 nM; against human TLR9 it was 1950 nM; against human TLR8, 12 nM.
For the compound `CCc1c(-c2ccnc(C)c2)[nH]c2ccc(N3CCN(C4CCN(C(C)C)CC4)CC3)cc12` [Example 147, 3-ethyl-5-(4-(1-isopropylpiperidin-4-yl)piperazin-1-yl)-2-(2-methylpyridin-4-yl)-1H-indole], the values for the IC50 against human TLR7, against human TLR9 and at human TLR8 were 4650 nM, 227 nM and 17900 nM, respectively.
Take `CCc1c(-c2ccnc(OC)c2)[nH]c2ccc(N3CCN(C4CCN(CC)CC4)CC3)cc12` [Example 148, 3-ethyl-5-(4-(1-ethylpiperidin-4-yl)piperazin-1-yl)-2-(2-methoxypyridin-4-yl)-1H-indole]: the IC50 against human TLR7 amounted to 96 nM; against human TLR9, 446 nM; at human TLR8 it was 32 nM.
On to `COc1ccc(-c2[nH]c3ccc(N4CCN(C5CCN(C)CC5)CC4)cc3c2C)cc1OC` [Example 149, 2-(3,4-dimethoxyphenyl)-3-methyl-5-(4-(1-methylpiperidin-4-yl)piperazin-1-yl)-1H-indole], for which the IC50 on human TLR7 was 681 nM; on human TLR9, 727 nM; on human TLR8, 62 nM.
For `CCc1c(-c2ccc(OC)c(OC)c2)[nH]c2ccc(N3CCN(CCNC)CC3(C)C)cc12` [Example 150, 2-(4-(2-(3,4-dimethoxyphenyl)-3-ethyl-1H-indol-5-yl)-3,3-dimethylpiperazin-1-yl)-N-methylethan-1-amine] the same measures were 360 nM, 425 nM and 102 nM.
For `Cc1c(-c2ccnc3[nH]ccc23)[nH]c2ccc(N3CCN(C4CCN(C(C)C)CC4)CC3)cc12` [Example 151, 4-(5-(4-(1-isopropylpiperidin-4-yl)piperazin-1-yl)-3-methyl-1H-indol-2-yl)-1H-pyrrolo[2,3-b]pyridine] the same measures were 4230 nM, 327 nM and 47500 nM.
For `CCc1c(-c2ccnc(OC)c2)[nH]c2ccc(N3CCN(C4CCN(C(C)C)CC4)CC3)cc12` [Example 153, 3-ethyl-5-(4-(1-isopropylpiperidin-4-yl)piperazin-1-yl)-2-(2-methoxypyridin-4-yl)-1H-indole], in that order: 83 nM, 755 nM and 11 nM.

For the origin of these results see patent US11306092B2, “Amino indole compounds useful as TLR inhibitors” (BRISTOL-MYERS SQUIBB COMPANY, priority 2017, dated 2022).
